Earlier results as cited in patent publication US9943488B2, “Gamma hydroxybutyric acid granules” (DEBREGEAS ET ASSOCIES PHARMA, priority 2011, dated 2018).

Conditions: after oral administration

SMILES: O=C(O)CCCO [GHB, Gamma-hydroxybutyric acid]
- Absolute bio-availability: 25%
